Results: patent publication US20240099989A1, “AGENT FOR PREVENTING OR IMPROVING PERIPHERAL NEUROPATHY” (KINKI UNIVERSITY, priority 2021, published 2024)
Where two headings read alike, the source gives them in different places.

How the values were obtained:
[1] = tested on: Peripheral Neuropathy in a Mouse Caused by Paclitaxel; format: in vivo, Balb/c mice; conditions: 6 mg/kg paclitaxel + 100 mg/kg orally daily from Day 6 (therapy); from Day 12 onwards
Source text: Six to seven-week-old female Balb/c mice were used for the tests. All the mice were acclimated for seven days after arrival. Then, the mice were grouped into the following four groups: a control group, a group receiving paclitaxel, a group receiving xylitol, and a group receiving paclitaxel and xylitol (a group receiving paclitaxel+xylitol). Each group consisted of five mice.
On Day 8 of acclimation, the mice in the group receiving paclitaxel and the group receiving paclitaxel+xylitol were intraperitoneally administered with paclitaxel at a dose of 6 mg/kg. This day was designated as Day 0 of administration. Thereafter, these mice were intraperitoneally administered with paclitaxel at a daily dose of 6 mg/kg on Day 7 and Day 14.
The mice in the group receiving xylitol and the group receiving paclitaxel+xylitol were orally administered with xylitol at a dose of 5 mg/kg daily from Day 0.
The mice in the four groups described in (4) of the present example (Example 1) were placed in a cage, and the avoidance response frequency (score) was measured by pressing a filament with a bending force of 0.16 g against the back of the hind paw.
Six to seven-week-old female Balb/c mice were used for the tests as with Example 1. All the mice were acclimated for seven days after arrival. Then, the mice were grouped into the following four groups: a control group, a group receiving paclitaxel, a group receiving xylitol, and a group receiving paclitaxel and xylitol (a group receiving paclitaxel+xylitol). Each group consisted of five mice. […]
For the mice in the four groups described in (6) of the present example (Example 2), the avoidance response frequency (score) was measured by pressing a filament with a bending force of 0.16 g against the back of the hind paw. […]
The mice in the four groups described in (4) of the present example (Example 3) were placed in a cage, and the avoidance response frequency (score) was measured by pressing a filament with a bending force of 0.16 g against the back of the hind paw. […]

[2] = tested on: Peripheral Neuropathy in a Mouse Caused by Bortezomib; format: in vivo, Balb/c mice
Source text: Six to seven-week-old female Balb/c mice were used for the tests. All the mice were acclimated for seven days after arrival. Then, the mice were grouped into the following four groups: a control group, a group receiving bortezomib, a group receiving xylitol, and a group receiving bortezomib and xylitol (a group receiving bortezomib+xylitol). Each group consisted of five mice.
On Day 8 of acclimation, the mice in the group receiving bortezomib and the group receiving bortezomib+xylitol were intraperitoneally administered with bortezomib at a dose of 1 mg/kg. This day was designated as Day 0 of administration. Thereafter, these mice were intraperitoneally administered with bortezomib at a daily dose of 1 mg/kg on Day 7 and Day 14.
The mice in the group receiving xylitol and the group receiving bortezomib+xylitol were orally administered with xylitol at a dose of 5 mg/kg daily from Day 0.
A cold plate test was performed to examine the effect of xylitol on paresthesia that is caused by a low temperature stimulus. The mice in the four groups described in (10) of the present example (Example 1) were placed on a cold plate set at 10° C., and withdrawal response time (latent time) was measured. It is presumed that a shorter latent time reflects a greater degree of shunning the low temperature stimulus by the cold plate.
Six to seven-week-old female Balb/c mice were used for the tests as with Example 1. All the mice were acclimated for seven days after arrival. Then, the mice were grouped into the following four groups: a control group, a group receiving bortezomib, a group receiving xylitol, and a group receiving bortezomib and xylitol (a group receiving bortezomib+xylitol). Each group consisted of five mice.
On Day 8 of acclimation, the mice in the group receiving bortezomib and the group receiving bortezomib+xylitol were intraperitoneally administered with bortezomib at a dose of 1 mg/kg. This day was designated as the first day of the administration (Day 0). Thereafter, these mice were intraperitoneally administered with bortezomib at the same dose on Day 7 and Day 14 for a total of 3 doses.
The mice in the group receiving 100 mg/kg xylitol were orally administered with xylitol at a dose of 100 mg/kg daily from Day 0. The mice in the group receiving bortezomib+100 mg/kg xylitol were orally administered with xylitol at a dose of 100 mg/kg daily from Day 6 of administration.
A test was performed on the mice in the four groups described in (12) of the present example (Example 2) to examine the effect of xylitol on paresthesia that is caused by a low temperature stimulus. The mice in respective groups were placed on a cold plate set at 10° C., and withdrawal response time (latent time) was measured. It is presumed that a shorter latent time reflects a greater degree of shunning the low temperature stimulus by the cold plate.
Six to seven-week-old female Balb/c mice were used for the tests as with Example 1. All the mice were acclimated for seven days after arrival. Then, the mice were grouped into the following four groups: a control group, a group receiving bortezomib, a group receiving D-threitol, and a group receiving bortezomib and D-threitol (a group receiving bortezomib+D-threitol). Each group consisted of five mice.
On Day 8 of acclimation, the mice in the group receiving bortezomib and the group receiving bortezomib+D-threitol were intraperitoneally administered with bortezomib at a dose of 1 mg/kg. This day was designated as Day 0 of administration. Thereafter, these mice were intraperitoneally administered with bortezomib at a daily dose of 1 mg/kg on Day 7 and Day 14.
The mice in the group receiving D-threitol and the group receiving bortezomib+D-threitol were orally administered with D-threitol at a dose of 5 mg/kg daily from Day 0.
A cold plate test was performed to examine the effect of D-threitol on paresthesia that is caused by a low temperature stimulus. […]

[3] = 1 mg/kg bortezomib + 5 mg/kg test substance orally daily from Day 0 (prevention)
[4] = 1 mg/kg bortezomib + 100 mg/kg orally daily from Day 6, on Day 12, vs group receiving 1 mg/kg bortezomib

SMILES: OC[C@@H](O)[C@H](O)CO [D-threitol]
- avoidance response score [1]: maintained a score clearly lower than that of the group receiving paclitaxel
- withdrawal response time (latent time) [2, 3]: approximately similar to that of the control group
- withdrawal response time (latent time) [2, 4]: significantly longer withdrawal response time

SMILES: OC[C@H](O)[C@H](O)[C@H](O)[C@@H](O)CO [L-talitol]
- avoidance response score [1]: maintained a score clearly lower than that of the group receiving paclitaxel
- withdrawal response time (latent time) [2, 3]: approximately similar to that of the control group
- withdrawal response time (latent time) [2, 4]: significantly longer withdrawal response time

SMILES: OC[C@@H](O)[C@H](O)[C@@H](O)CO [xylitol]
- avoidance response score [1]: maintained a score clearly lower than that of the group receiving paclitaxel
- withdrawal response time (latent time) [2, 3]: approximately similar to that of the control group
- withdrawal response time (latent time) [2, 4]: significantly longer withdrawal response time
